Source: a melting point compilation (Tetko et al.)

melting point | Compound
99 to 101 °C | O=C(O)C1Cc2ccccc2CN1S(=O)(=O)c1ccc(F)cc1 (stereo not given)
214 to 216 °C | Cc1c(C=O)c2ccccn2c1C=O
289 to 291 °C | Nc1cnc(Cl)cc1C(=O)O
128 to 132 °C | O=C(O)c1cc(Cl)cc(Cl)c1OC(F)F
82 to 84 °C | Nc1cccc(C(=O)N2CCOCC2)c1
61 to 63 °C | CC1(C)CC(NC(=O)CCl)CC(C)(C)N1
176 to 178 °C | O=C(Nc1ccccn1)c1ccc(O)cc1
55 to 58 °C | O=C(O)c1cccc(S(=O)(=O)N2CCc3ccccc3C2)c1
171 to 179 °C | Nc1ccc(Br)c(C(=O)O)c1
299 to 301 °C | O=C(O)c1cc[nH]c(=O)c1
123 to 125 °C | Cn1cc(N2CCNCC2=O)cn1
137 to 139 °C | O=C1CCCN1c1ccc(Cl)c([N+](=O)[O-])c1
177 to 179 °C | O=Cc1ccc(-c2nc3ccccc3s2)o1
129 to 131 °C | COC(=O)c1cc(O)c(C)c(F)c1
161 to 163 °C | COc1ccc(CCNC(=O)CC(=O)NCCc2ccc(OC)cc2)cc1
242 to 244 °C | Cn1ccc(C(=O)NC2(C(=O)O)CCCCCC2)cc1=O
46 to 48 °C | CC1(C)CNCCS1(=O)=O
257 to 259 °C | O=c1cc(-c2ccccc2)c2cc(Cl)ccc2[nH]1
88 to 90 °C | COc1ccc(N=C=S)cc1Cl
226 to 228 °C | O=C(CC(=O)Nc1cc(Cl)ccc1Cl)Nc1cc(Cl)ccc1Cl
141 to 143 °C | Cc1cc(C)cc(NC(=O)CCl)c1
68 to 70 °C | OCc1ccc(OCc2cccs2)cc1
214 to 216 °C | O=C(O)c1ccc(COc2ccccc2)cc1
236 to 238 °C | O=C(O)c1cccnc1SCc1ccc(Br)cc1

melting point | Compound
85 to 87 °C | O=C(O)CCCCCN1C(=O)CSC1=S
139 to 141 °C | O=Cc1ccc(OCC(=O)Nc2ccc(Cl)cc2)cc1
180 to 182 °C | COc1ccc(NC(=O)/C=N/O)cc1
127 to 129 °C | Nc1cc(C2CCCCC2)no1
153 to 155 °C | CC(C)NC(=O)Cc1ccc(N)cc1
376 to 378 °C | Sc1nc2cc(Cl)cc(Cl)c2[nH]1
162 to 164 °C | Cc1ccccc1C1(C(=O)O)CCCCC1
140 to 142 °C | CCNc1cc2c(nn1)CCNC2
80 to 82 °C | Cc1nc2c(s1)C(O)CCC2 (stereo not given)
216 to 218 °C | Cn1c(O)nnc1S
264 to 266 °C | N=C1NS(=O)(=O)Cc2ccccc21
81 to 83 °C | O=c1onc(-c2ccccc2)n1CC1CO1 (stereo not given)
260 to 262 °C | Sc1nnc(C2CC2)n1Cc1ccco1
176 to 178 °C | CC(C)C(NC(=O)c1ccccc1)c1nn[nH]n1 (stereo not given)
312 to 314 °C | COc1ccc(-n2c(S)nc3sc4c(c3c2=O)CCCC4)cc1
185 to 187 °C | Cc1cc(NC(N)=O)ccc1Br
88 to 90 °C | Cc1ccccc1-c1nonc1N
49 to 51 °C | CC(C)C(Br)C(=O)c1ccccc1 (stereo not given)
89 to 91 °C | Nc1nc(CCCC(=O)O)cs1
206 to 208 °C | Cc1nc(O)c2c(n1)CCCC2
95 to 97 °C | Cc1ccccc1OCc1csc(N)n1
159 to 161 °C | CC(=O)N[C@@H](CC(=O)O)C(N)=O
97 to 99 °C | CCOc1ccc(C#N)cn1
151 to 153 °C | Cn1cc(N2C(=O)C=CC2=O)cn1

melting point | Compound
203 to 205 °C | O=C(O)CSc1nncn1C1CC1
66 to 68 °C | CNc1ccccc1C#N
213 to 215 °C | Cn1ncc(C(=O)O)c1-c1ccccc1
216 to 218 °C | N#CC(C(=O)CCl)c1nc2ccccc2c(=O)[nH]1 (stereo not given)
143 to 145 °C | O=C(O)c1sccc1S(=O)(=O)N1CCC(CO)CC1
201 to 203 °C | O=C1CCc2cc([N+](=O)[O-])ccc2N1
213 to 215 °C | O=C(O)Cn1ncn2nccc2c1=O
210 to 212 °C | CC(=O)N(c1ccc(Cl)cc1)c1nc(C=O)cs1
64 to 66 °C | CC(C)c1ccc(C=NO)cc1
46 to 48 °C | CSc1ccc(S(=O)(=O)Cl)cc1
93 to 95 °C | COC(=O)CCNc1ccncc1[N+](=O)[O-]
183 to 185 °C | NS(=O)(=O)c1cccc2cccnc12
299 to 301 °C | O=C(O)c1c2c(nc3ccccc13)C(=Cc1cccc([N+](=O)[O-])c1)CCC2
74 to 76 °C | COc1cc(CC(=O)O)ccc1C
261 to 263 °C | Cc1cc(S(N)(=O)=O)cc(C(=O)O)c1C
114 to 116 °C | CN(CC(=O)O)C(=O)c1ccc(Br)s1
65 to 70 °C | COC(=O)c1ccc(S(=O)(=O)Cl)cc1
195 to 197 °C | O=C(O)c1cnoc1-c1ccco1
136 to 138 °C | CC(NS(=O)(=O)c1ccc(Cl)cc1)C(=O)O (stereo not given)
179 to 181 °C | O=c1[nH]c(-c2ccc(F)cc2)cs1
144 to 146 °C | O=C(CCl)Nc1nc2c(s1)CCCC2
246 to 248 °C | O=C(Nc1ccc(O)cc1)c1ccc(Cl)cc1
352 to 354 °C | Nc1ccc2[nH]c(=O)c(=O)[nH]c2c1
298 to 300 °C | NC(=O)Cn1cnc2cc(C(=O)O)ccc21

melting point | Compound
109 to 111 °C | O=C(O)CCCCc1ccc(I)cc1
47 to 58 °C | O=C(CCl)c1ccc2c(c1)CCC2
131 to 134 °C | COc1cc(C=O)cc(O)c1O
70 to 72 °C | N#Cc1ccc(N2CCC(N)CC2)nc1
75 to 77 °C | COC(=O)C1(O)CCN(Cc2ccccc2)CC1
161 to 163 °C | O=C(O)C1CCCN1C(=O)c1ccc([N+](=O)[O-])s1 (stereo not given)
79 to 81 °C | CC1(c2ccccc2)CC(=O)NC1=O (stereo not given)
158 to 160 °C | NNC(=O)C(=O)NCc1ccco1
64 to 66 °C | NC1(C(=O)NCC2CC2)CCCC1
185 to 187 °C | O=c1[nH]nnc2sc3c(c12)CCCC3
254 to 256 °C | Cn1c(C(F)(F)F)nc2cc(C(=O)O)ccc21
132 to 134 °C | Nc1cccc(CS(=O)(=O)c2ccccc2)c1
124 to 126 °C | COc1cc(C(C)=O)ccc1S(C)(=O)=O
62 to 64 °C | CC(C)(C)OC(=O)Nc1ccncc1C=O
134 to 136 °C | O=C1C=CC(=O)N1c1cccc2cnccc12
185 to 187 °C | O=C(CCl)Nc1cc(-n2cnnn2)ccc1F
49 to 51 °C | Cc1nn(CCCl)c(C)c1C=O
83 to 85 °C | CC(C)Oc1ccc(Cl)cc1C(=O)O
291 to 293 °C | NC(=O)NCc1ccc(C(=O)O)cc1
109 to 111 °C | CCOC(=O)c1nnc(C)n1C1CC1
76 to 78 °C | O=C(O)CCc1cc(Br)cs1
165 to 169 °C | Nc1ccc(-c2nc3ccccc3s2)cc1N
149 to 151 °C | Cc1ccc(-n2nc(C(=O)O)cc2C)cc1
58 to 60 °C | Nc1cc(CCc2ccccc2)[nH]n1

melting point | Compound
250 to 252 °C | CC(Cl)c1nc2ccccc2c(=O)[nH]1 (stereo not given)
264 to 266 °C | NC(=O)c1c[nH]c(C(=O)O)c1
84 to 86 °C | CC(C)(C)OC(=O)Nc1csc(Br)c1
78 to 80 °C | O=Cc1cc(Br)c(OCc2ccccc2)c(Br)c1
153 to 155 °C | C#CCN1C(=O)C(=O)c2ccccc21
182 to 185 °C | COc1cc(/C=C/C(=O)O)cc2c1OCCO2
187 to 189 °C | CC(C)(C)c1cnnc(N)n1
152 to 154 °C | NC(=O)c1ccc(N)c(F)c1
173 to 175 °C | Nc1nc(Cl)c(C=O)c(N2CCOCC2)n1
73 to 75 °C | COCC(C)NC(N)=O (stereo not given)
88 to 90 °C | COC(=O)c1cc2ccc(F)cc2s1
233 to 235 °C | Nn1cnc2c(cnn2-c2ccccc2)c1=O
107 to 109 °C | NCC(O)COc1ccc2c(c1)OCO2 (stereo not given)
164 to 166 °C | CS(=O)(=O)N1CCNC(=O)C1
174 to 176 °C | O=C(O)CCC1Cc2ccccc2NC1=O (stereo not given)
159 to 161 °C | Oc1ccc(Nc2nnns2)cc1
203 to 205 °C | CC(=O)c1c(C)[nH]c(N=Nc2cccc(C(=O)O)c2)c1C
122 to 124 °C | Cc1nn(C2CCS(=O)(=O)C2)c(C)c1C=O (stereo not given)
159 to 161 °C | O=C(O)C1CCCN(C(=O)C2Cc3cc(Cl)ccc3O2)C1 (stereo not given)
94 to 96 °C | CCN(CC)S(=O)(=O)c1ccc(N2CCOCC2)c(N)c1
89 to 91 °C | CCN(CC)S(=O)(=O)c1ccc(OC(C)C)c(N)c1
52 to 54 °C | Cc1coc(-c2cc(N)ccc2C)n1
101 to 103 °C | O=C1CCC2(CCN1)OCCO2
154 to 156 °C | OCc1cccc2nccn12

melting point | Compound
142 to 144 °C | CN(C(=O)OC(C)(C)C)c1ccc(C(=N)N)cc1
150 to 152 °C | CC(C)(C)OC(=O)N1CCCCCC1C(N)=NO (stereo not given)
218 to 220 °C | Cc1ccc(-n2cnnc2SCC(=O)O)cc1
159 to 161 °C | Nc1nnnn1-c1ccccc1
81 to 83 °C | COc1cccc(NCCC#N)c1
39 to 41 °C | CC(C)Oc1ccc(N)cc1C#N
186 to 188 °C | O=C(NC1CCC(O)CC1)C(F)(F)F (stereo not given)
128 to 130 °C | CC(C)C(NCC(F)(F)F)C(=O)O (stereo not given)
232 to 234 °C | Cn1ncc2c(=O)[nH]c(CCl)nc21
164 to 166 °C | CC(C)(C)Nc1nnc(S)s1
154 to 156 °C | CN(C)S(=O)(=O)c1ccccc1C(N)=S
119 to 121 °C | CCCOc1cn(-c2ccccc2)nc1C(=O)O
91 to 93 °C | COc1ccc(C(C)=O)cc1-c1ccccc1
98 to 100 °C | O=C(O)c1cccc(S(=O)(=O)N2CCCc3ccccc32)c1
187 to 189 °C | Sc1nncn1-c1cccc(Cl)c1
179 to 181 °C | CC(C)(C)c1ccc(C2(C(=O)O)CCC2)cc1
95 to 97 °C | Cc1cccc(NS(=O)(=O)c2ccc(C)c(N)c2)c1
79 to 81 °C | CCN(Cc1ccccc1N)C(C)=O
133 to 135 °C | c1ccc(-c2ncc[nH]2)nc1
194 to 196 °C | Cc1ccc(-c2nc(C(=O)O)cs2)o1
70 to 72 °C | COc1cc(Br)[nH]n1

Compound | melting point
O=C(O)c1cnn(Cc2ccccc2Cl)c1 | 144 to 146 °C
CCc1c(O)nc(S)n(-c2ccccc2OC)c1=O | 160 to 162 °C
NC(=O)C(Cl)c1ccc(F)cc1 (stereo not given) | 93 to 95 °C
N#Cc1cc([N+](=O)[O-])ccc1O | 196 to 198 °C
